The source of these data is patent publication US12331022B2, “Spiropiperidine allosteric modulators of nicotinic acetylcholine receptors” (Merck Sharp & Dohme LLC, priority 2019, dated 2025).

Each structure is given as a SMILES string. Like-named read-outs stand apart in the source and are kept apart here.

This test has as its target T1, human α7 nAChR (Homo sapiens, UniProt P36544).
T1 construct: host or cells: HEK
Nature of the test: Automated patch-clamp electrophysiology functional assay (Assay A). As to conditions: HEK cell line stably expressing human RIC-3 and human α7, IonFlux HT whole-cell population patch, with or without 40 μM acetylcholine. Format: cell-based. The protocol: The α7 nAChR positive allosteric modulator (PAM) activity of the present compounds may be tested using assays known in the art. The α7 nAChR PAMs described herein have activities in an automated patch-clamp electrophysiology functional assay as described in the examples. The assay was performed using the IonFlux HT in a whole-cell, population patch configuration. See Golden et al. Assay Drug Dev. Technol. (2011) 9:608-619. The compounds were assessed for their ability to modulate the function of the human α7 nAChR stably expressed in a HEK cell line both in the presence, and in the absence of the natural α7 agonist acetylcholine. By performing a series of such measurements at different concentrations, the effective concentration of the α7 nAChR PAMs (EC50) was determined. See Spencer et al. Assay Drug Dev. Technol. (2012) 10:313-324.
Direct activation of α7 (agonism), and potentiation of acetylcholine-evoked α7 currents was determined as follows:
Automated patch-clamp electrophysiology was performed using the IonFlux HT (Fluxion Biosciences Inc., San Francisco, CA) in the whole-cell, population patch configuration. Test compounds were assessed for their ability to modulate the function of the α7 nicotinic acetylcholine receptor both in the presence, and in the absence of the natural α7 agonist acetylcholine. A HEK cell line stably expressing both human RIC-3 and human α7 (PrecisION hnAChR α7/RIC-3, Eurofins Pharma, St. Charles, MO) was cultured in 175 cm^2 triple-layer tissue culture flasks to no more than 90% confluency in DMEM/F-12 growth media supplemented with 10% heat-inactivated fetal bovine serum, 1% non-essential amino acids, 0.625 μg/mL Puromycin, and 400 μg/mL Geneticin. Immediately prior to assay, cells were detached by first aspirating growth media, rinsing with Dulbecco's phosphate buffered saline, and then adding 10 mL of Accutase (Innovative Cell Technologies, San Diego, CA) to the flask and then incubating at 37° C. for 5 minutes. Detached cells were then recovered by the addition of 40 mL of CHO-serum-free media supplemented with 25 mM HEPES, and rocked gently in a 50 mL conical tube for 20 minutes prior to patch-clamp assay. After recovery, cells were pelleted by centrifugation at 1,000 RPM for 1 minute in a compact bench top centrifuge; recovery media was aspirated and cells were resuspended in external recording solution (150 mM NaCl, 5 mM KCl, 2 mM CaCl2, 1 mM MgCl2, 10 mM HEPES, 12 mM dextrose) to a density of 5.0×10^6 cells/mL. The cell suspension was added to the cell inlet wells on an IonFlux HT population patch plate which had previously been rinsed and primed with deionized H2O. Test compounds were serially diluted in DMSO and then resuspended to the final test concentration in external recording solution, with, or without 40 μM acetylcholine added to the external recording solution; test compounds were then transferred to the IonFlux HT population patch plate. Internal recording solution (110 mM TrisPO4, 28 mM TrisBase, 0.1 mM CaCl2, 2 mM MgCl2, 11 mM EGTA, 4 mM MgATP) was added to the internal recording solution inlet wells on the IonFlux HT patch plate previously loaded with cells and test compounds, and the plate loaded into the IonFlux HT instrument. A protocol was executed on the IonFlux HT to trap the cells, break into the cells, and establish the whole-cell recording configuration; cells were voltage-clamped at a holding potential of −60 mV for the duration of the experiment, all experiments were conducted at room temperature, and the IonFlux HT injection pressure was 8 psi for solution applications. Upon establishing the whole-cell configuration, external recording solution was perfused into the recording chambers for 120 seconds and then 40 μM acetylcholine was applied for 1 second and immediately washed off with external recording solution for 60 seconds. […]
A general note: The patch-clamp technique gives a direct electrical read-out from membranes.

T1 sequence (P36544 23-502): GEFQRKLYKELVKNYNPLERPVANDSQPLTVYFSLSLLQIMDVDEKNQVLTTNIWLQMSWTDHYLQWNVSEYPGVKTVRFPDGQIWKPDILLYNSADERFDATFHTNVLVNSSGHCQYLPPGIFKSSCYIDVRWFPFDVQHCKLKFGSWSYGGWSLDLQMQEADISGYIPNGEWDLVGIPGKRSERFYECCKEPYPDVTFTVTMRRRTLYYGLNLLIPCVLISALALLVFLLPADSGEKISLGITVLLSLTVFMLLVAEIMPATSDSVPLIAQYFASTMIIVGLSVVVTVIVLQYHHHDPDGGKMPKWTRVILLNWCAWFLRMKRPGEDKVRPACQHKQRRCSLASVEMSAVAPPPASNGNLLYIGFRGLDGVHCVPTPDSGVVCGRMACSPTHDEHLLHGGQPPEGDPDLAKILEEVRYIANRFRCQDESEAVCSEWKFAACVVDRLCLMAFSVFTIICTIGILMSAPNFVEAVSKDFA

In the case of `NS(=O)(=O)N1CCC2(CC1)C(/C=C/c1ccc(F)cc1C(F)(F)F)C2(F)F` (centres unmarked) [Example 19, 1,1-Difluoro-2-{(E)-2-[4-fluoro-2-(trifluoromethyl)phenyl]ethenyl}-6-azaspiro[2.5]octane-6-sulfonamide], the EC50 by setting is: (read-out: α7 nAChR EC50) 1900 nM; (read-out: α7 nAChR Potency) 500 to 5000 nM.

`Cc1cc(OCC2CC23CCN(S(N)(=O)=O)CC3)n(-c2ccccc2)n1` (racemic) [Example A14, 1-{[(3-methyl-1-phenyl-1H-pyrazol-5-yl)oxy]methyl}-6-azaspiro[2.5]octane-6-sulfonamide]: the EC50 reads like this: (read-out: α7 nAChR EC50) 700 nM; (read-out: α7 nAChR Potency) 500 to 5000 nM.

For the molecule `NS(=O)(=O)N1CCC2(CC1)C(COc1ccnc(OCC(F)(F)F)c1)C2(F)F` (single isomer, unassigned) [Example A34, 1,1-difluoro-2-({[2-(2,2,2-trifluoroethoxy)pyridin-4-yl]oxy}methyl)-6-azaspiro[2.5]octane-6-sulfonamide], the EC50 is, setting by setting: (read-out: α7 nAChR EC50) 550 nM; (read-out: α7 nAChR Potency) 500 to 5000 nM.

Turning to `NS(=O)(=O)N1CCC2(CC2COc2cccc(OCC(F)(F)F)n2)C(F)(F)C1` (racemic) [Example A39, 4,4-difluoro-1-({[6-(2,2,2-trifluoroethoxy)pyridin-2-yl]oxy}methyl)-6-azaspiro[2.5]octane-6-sulfonamide], the EC50 was 310 nM (read-out: α7 nAChR EC50) and 100 to 500 nM (read-out: α7 nAChR Potency).

`COc1ccc(Cl)cc1NC[C@@H]1CC12CCN(S(N)(=O)=O)CC2` [Example 14, (1R)-1-{[(5-Chloro-2-methoxyphenyl)amino]methyl}-6-azaspiro[2.5]octane-6-sulfonamide]: the EC50 by setting is: (read-out: α7 nAChR EC50) 48 nM; (read-out: α7 nAChR Potency) at most 100 nM.

Regarding `NS(=O)(=O)N1CCC2(CC1)CC2COc1ccnc(C(F)(F)F)c1` (centres unmarked) [Example 5, 1-({[2-(Trifluoromethyl)pyridin-4-yl]oxy}methyl)-6-azaspiro[2.5]octane-6-sulfonamide], the EC50 by setting is: (read-out: α7 nAChR EC50) 3200 nM; (read-out: α7 nAChR Potency) 500 to 5000 nM.

As for `CN1CCN(c2cccc(OC[C@@H]3CC34CCN(S(N)(=O)=O)CC4)n2)CC1` [Example A46, (1R)-1-({[6-(4-methylpiperazin-1-yl)pyridin-2-yl]oxy}methyl)-6-azaspiro[2.5]octane-6-sulfonamide], the EC50 (read-out: α7 nAChR Potency) was 500 to 5000 nM.

On to `NS(=O)(=O)N1CCC2(CC1)C[C@H]2COc1cccc(OC(F)(F)F)c1` [Example A24, (1R)-1-{[3-(trifluoromethoxy)phenoxy]methyl}-6-azaspiro[2.5]octane-6-sulfonamide], for which the EC50 was 180 nM (read-out: α7 nAChR EC50) and 100 to 500 nM (read-out: α7 nAChR Potency).

In the case of `NS(=O)(=O)N1CCC2(CC1)C(COc1ccnc(OC(F)F)c1)C2(F)F` (single isomer, unassigned) [Example 2, 2-({[2-(Difluoromethoxy)pyridin-4-yl]oxy}methyl)-1,1-difluoro-6-azaspiro[2.5]octane-6-sulfonamide], the EC50 runs as follows: (read-out: α7 nAChR EC50) 71 nM; (read-out: α7 nAChR Potency) at most 100 nM.

`NS(=O)(=O)N1CCC2(CC1)C[C@H]2COc1cccc(OCC2CC2)n1` [Example A17, (1R)-1-({[6-(cyclopropylmethoxy)pyridin-2-yl]oxy}methyl)-6-azaspiro[2.5]octane-6-sulfonamide]: the EC50 is, setting by setting: (read-out: α7 nAChR EC50) 130 nM; (read-out: α7 nAChR Potency) 100 to 500 nM.

With `NS(=O)(=O)N1CCC2(CC1)C(CSc1ccc(F)cc1C(F)(F)F)C2(F)F` (centres unmarked) [Example 17, 1,1-Difluoro-2-({[4-fluoro-2-(trifluoromethyl)phenyl]sulfanyl}methyl)-6-azaspiro[2.5]octane-6-sulfonamide], the EC50 (read-out: α7 nAChR EC50) worked out at 720 nM and the EC50 (read-out: α7 nAChR Potency) was 500 to 5000 nM.

`COc1ccc(OC[C@@H]2CC23CCN(S(N)(=O)=O)CC3)c(OC)n1` [Example A1, (1R)-1-{[(2,6-dimethoxypyridin-3-yl)oxy]methyl}-6-azaspiro[2.5]octane-6-sulfonamide]: the EC50 is 6200 nM (read-out: α7 nAChR EC50) and 5000 to 50000 nM (read-out: α7 nAChR Potency).

Regarding `NS(=O)(=O)N1CCC2(CC1)CC2COc1ccc(F)cc1C(F)(F)F` (single isomer, unassigned) [Example A7, 1-{[4-fluoro-2-(trifluoromethyl)phenoxy]methyl}-6-azaspiro[2.5]octane-6-sulfonamide], the EC50 is, setting by setting: (read-out: α7 nAChR EC50) 1200 nM; (read-out: α7 nAChR Potency) 500 to 5000 nM.

Consider `NS(=O)(=O)N1CCC2(CC1)C(COc1cccnc1OCC(F)(F)F)C2(F)F` (single isomer, unassigned) [Example A35, 1,1-difluoro-2-({[2-(2,2,2-trifluoroethoxy)pyridin-3-yl]oxy}methyl)-6-azaspiro[2.5]octane-6-sulfonamide], for which the EC50 is, setting by setting: (read-out: α7 nAChR EC50) 540 nM; (read-out: α7 nAChR Potency) 500 to 5000 nM.

Turning to `NS(=O)(=O)N1CCC2(CC1)C[C@H]2COCc1cccc(OCC(F)(F)F)n1` [Example 9, (1R)-1-({[6-(2,2,2-Trifluoroethoxy)pyridin-2-yl]methoxy}methyl)-6-azaspiro[2.5]octane-6-sulfonamide], the EC50 by setting is: (read-out: α7 nAChR EC50) 1200 nM; (read-out: α7 nAChR Potency) 500 to 5000 nM.

For the molecule `COc1cc(OC[C@H]2CC23CCN(S(N)(=O)=O)CC3)nc(OCC(F)(F)F)c1` [Example A16, (1S)-1-({[4-methoxy-6-(2,2,2-trifluoroethoxy)pyridin-2-yl]oxy}methyl)-6-azaspiro[2.5]octane-6-sulfonamide], the EC50 was 190 nM (read-out: α7 nAChR EC50) and 100 to 500 nM (read-out: α7 nAChR Potency).

For the molecule `NS(=O)(=O)N1CCC2(CC1)C(COc1noc(-c3ccccc3)n1)C2(F)F` (single isomer, unassigned) [Example 6, 1,1-Difluoro-2-{[(5-phenyl-1,2,4-oxadiazol-3-yl)oxy]methyl}-6-azaspiro[2.5]octane-6-sulfonamide], the EC50 is, setting by setting: (read-out: α7 nAChR EC50) 49 nM; (read-out: α7 nAChR Potency) at most 100 nM.

Regarding `CCOc1cccc(OC[C@@H]2CC23CCN(S(N)(=O)=O)CC3)n1` [Example A54, (1R)-1-{[(6-ethoxypyridin-2-yl)oxy]methyl}-6-azaspiro[2.5]octane-6-sulfonamide], the EC50 was 450 nM (read-out: α7 nAChR EC50) and 100 to 500 nM (read-out: α7 nAChR Potency).

For `COc1ccccc1NC(=O)[C@@H]1CC12CCN(S(N)(=O)=O)CC2` [Example B1, (1R)—N-(2-methoxyphenyl)-6-sulfamoyl-6-azaspiro[2.5]octane-1-carboxamide], the EC50 (read-out: α7 nAChR EC50) is 1400 nM and the EC50 (read-out: α7 nAChR Potency) was 500 to 5000 nM.

Consider `Cc1cc(C)n(-c2cccc(OC[C@H]3CC34CCN(S(N)(=O)=O)CC4)n2)n1` [Example A20, (1S)-1-({[6-(3,5-dimethyl-1H-pyrazol-1-yl)pyridin-2-yl]oxy}methyl)-6-azaspiro[2.5]octane-6-sulfonamide], for which the EC50 (read-out: α7 nAChR EC50) turned out to be 1800 nM and the EC50 (read-out: α7 nAChR Potency) lay in the range of 500 to 5000 nM.

Consider `COc1cc(OC[C@H]2CC23CCN(S(N)(=O)=O)CC3)ccc1F` [Example A5, (1S)-1-[(4-fluoro-3-methoxyphenoxy)methyl]-6-azaspiro[2.5]octane-6-sulfonamide], for which the EC50 (read-out: α7 nAChR EC50) amounted to 6200 nM and the EC50 (read-out: α7 nAChR Potency) lay within 5000 to 50000 nM.

On to `COc1cccc(OCC2CC23CCN(S(N)(=O)=O)CC3)n1` (racemic) [Example A27, 1-{[(6-methoxypyridin-2-yl)oxy]methyl}-6-azaspiro[2.5]octane-6-sulfonamide], for which the EC50 (read-out: α7 nAChR Potency) is 500 to 5000 nM.

For `NS(=O)(=O)N1CCC2(CC1)C(COc1cc(F)ccc1C(F)(F)F)C2(F)F` (single isomer, unassigned) [Example A8, 1,1-difluoro-2-{[5-fluoro-2-(trifluoromethyl)phenoxy]methyl}-6-azaspiro[2.5]octane-6-sulfonamide], the EC50 by setting is: (read-out: α7 nAChR EC50) 89 nM; (read-out: α7 nAChR Potency) at most 100 nM.
